Values joined by “and” are separate entries in the source; they are usually repeats but may differ in a detail not shown here. Equal entries are not always repeated. Marks after values point to notes of the source that are not given here.

The source of these data is PMC7472781, “Inherited and Acquired Determinants of Hepatic CYP3A Activity in Humans” (Frontiers in Genetics, 2020).

Data set [1] deals with CYP3A. Description: Endogenous CYP3A biomarker in plasma: cholesterol and 4ß-OH-cholesterol (GC-MS, baseline blood samples). Particulars: for Plasma concentration / Ratio (cholesterol): value (range); for Ratio (cholesterol): plasma. On the procedure:
Briefly, 10 μl of plasma were spiked with 10 μg of cholesterol-d5 as internal standard. After saponification with 0.5 ml of 1 M NaOH in 90% ethanol at 70°C for 1 h, 250 μl of water were added and the samples extracted with 2 ml of n-hexane. An aliquot of 50 μl of the extract was evaporated to dryness and derivatized with 20 μl of N,O-bis(trimethylsilyl)trifluoroacetamide (BSTFA) for 30 min at room temperature.
Briefly, 1 ml of plasma was spiked with 10 μg of BHT and 50 ng of the internal standard 4ß-hydroxycholesterol-d4 and saponified with 2.5 ml of 1 M NaOH in 90% ethanol at 70°C for 1 h under argon and then extracted with 1 ml of water and 5 ml of chloroform. The chloroform phase was evaporated to dryness in a stream of nitrogen and the residue dissolved in 1 ml of toluene. […] The cartridges were washed with 1 ml of hexane and 10 ml of 2-propanol in hexane (0.5% v/v) and then eluted with 2 ml of 2-propanol in hexane (30% v/v). The eluate was evaporated to dryness in a stream of nitrogen and derivatized with 20 μl of BSTFA for 30 min at room temperature. GC was performed on a J&W DB-5MS column (25 m, 0.2 mm i.d., 0.33 μm film thickness; Agilent) in the splitless mode. For the analysis of cholesterol, the GC oven program started at 150°C and was held for 1 min. […] For the analysis of 4ß-hydroxycholesterol the GC oven program startet at 150°C and was held for 1 min. Temperature was increased with 10°C/min to 250°C, then with 30°C/min to 300°C.

The test system of data set [2] is CYP3A. Put plainly: Within- and between-subject variance and genetic component (Kalow) of the 4 CYP3A biomarkers, three occasions. Particulars: for Genetic component: from intra- and inter-individual variation, independent of twin status, AUC, plasma concentration or 24-h urine Ae. On the procedure: (§1) Predefined primary endpoint was midazolam AUC. All concentrations and pharmacokinetic parameters were determined on three independent occasions to compare intra- versus interindividual variation. […] In structural equation modeling of heritability and in the other multifactorial analyses the individual means from the measurements or parameters obtained on the three occasions were used. Using structural equation analysis, variation was separated into additive genetic (A), common environmental (C), and unique environmental (E) effects. The heritability is the proportion of the variance resulting from the genetic effect (A). In order to investigate the genetic, common environmental, and unique environmental effects of the different traits taken into account, the possible correlation between traits were fitted in multivariate ACE, AE, and CE biometrical models using the mcglm package for multivariate regression analysis in R. As an exploratory analysis, we computed the correlation between MZ and DZ twins based on an unstructured (equal mean and variance for MZ and DZ twins) model. In all models, the mean structure for each trait was specified as a linear function of the covariates age and sex.

Data set [3] concerns CYP3A. Put plainly: Twin correlations and structural equation modeling (ACE, AE, CE) of heritability of the CYP3A biomarkers. Particulars: for rdz (correlation between DZ twins) / rmz (correlation between MZ twins): unstructured model. As for the experimental part:
as §1

The subject of data set [4] is CYP3A. Description: Multifactorial analysis of genetic and environmental effects on the CYP3A probe drugs and biomarkers. Particulars: in vivo. As for the experimental part:
DNA was isolated from whole venous blood by automated solid phase extraction with the EZ1^TM DNA Blood 350 μl Kit using the Bio-robot EZ1^TM (both Qiagen, Hilden, Germany). The CYP3A4^∗1b and ^∗22 alleles as well as the CYP3A5^∗1/^∗3 polymorphism were genotyped by DNA sequencing using fluorescence-labeled dideoxynucleotides and detection via Gene Mapper v3.7 Software® (Applied Biosystems®, Foster City, United States). Zygosity was assessed by analyzing variants in 23 polymorphic genes. Monozygosity was concluded when there were no differences regarding the polymorphisms in both siblings of one twin pair.
as §1

For data set [5] the following is noted: other studies; ref Diczfalusy et al., 2008; cited from earlier work.
Data set [6] concerns CYP3A. Particulars: cited from earlier work; for CYP3A activity increased: in vivo.
Data set [7] concerns CYP3A. Put plainly: Endogenous CYP3A biomarker in 24-h urine: cortisol and 6ß-OH-cortisol (LC-MS-MS). Particulars: value (range); for Amount in urine: 24 h urine; for Ratio (cortisol): urine.
Method: Cholesterol and 4ß-OH cholesterol were measured in the baseline blood samples before drug administration. All samples were centrifuged for 10 min (4000 rpm) at 4°C and the plasma was stored at −20°C.
Calibration samples for cholesterol were prepared in isooctane with 10% 2-propanol in the concentration range from 1 to 30 μg. Calibration samples for 4ß-hydroxycholesterol were prepared in isooctane with 0.8% 2-propanol from 5 to 100 ng. […] Calibration samples were worked up as the samples, and analyzed together with the unknown samples. […] The concentration in unknown samples was obtained from the regression line.
Data set [8] has as its system CYP3A. Description: clinical. Particulars: for AUC: 0.2 mg midazolam i.v., zero to infinity; for AUC / Ratio 1-OH-midazolam/midazolam (AUC): value (range). As for the experimental part: Midazolam was administered as a 2 min intravenous infusion with a total dose of 0.2 mg. The phenotyping test with midazolam was performed on three different occasions with a time interval of at least 1 week and maximally 3 months.
Pharmacokinetic parameters were estimated by non-compartmental analyses using the WinNonlin software (Pharsight Corporation, Mountain View, United States). The AUC from zero to infinity (AUC), was calculated by the linear/log trapezoidal rule and using the terminal elimination rate constant (lambda z). […] Total plasma clearance (Cl) after administration of midazolam was calculated as the ratio dose over AUC. Time (tmax) and amount of maximum plasma concentration (Cmax) were given as measured and the terminal half-life (t1/2) was calculated as t1/2 = ln(2)/lambda z.

In general, half-life refers to the time in which the quantity being followed falls by half. With `CC(C)CCC[C@@H](C)[C@H]1CC[C@H]2[C@@H]3CC=C4[C@@H](O)[C@@H](O)CC[C@]4(C)[C@H]3CC[C@]12C` [4ß-OH-cholesterol, 4ß-hydroxycholesterol], in the data set with CYP3A [1] (DZ twins), the Plasma concentration is recorded as 23.07 (15.12 – 46.77) ng/ml. Also, the Plasma concentration in the data set on CYP3A [1] (MZ twins) was 24.56 (12.59 – 62.96) ng/ml. Also, the “Plasma concentration, mean” value with CYP3A [1] (all subjects, three occasions) stood at 25.9 ng/mL. In the data set on CYP3A [1] (heterozygous carriers of active CYP3A5*1), this molecule showed a Median plasma level of 30.69 ng/mL. This molecule also yielded a Median plasma level in the data set on CYP3A [1] (homozygous carriers of CYP3A5*3) of 23.01 ng/mL. Moreover, in the data set with CYP3A [2], the Genetic component worked out at 0.812. Further, the “Variance between subjects (Varb) of plasma concentration” value in the data set on CYP3A [2] (human, in vivo) worked out at 86.5 ng/mL. The “Variance within subjects (Varw) of plasma concentration” value with CYP3A [2] (three occasions) stood at 14.3 ng/mL. In the data set on CYP3A [3] (ACE model), the “C^2 (common environmental effect)” value is 0.22 (0.26), the “H^2 (heritability)” value is 0.56 (0.26)* and the “Variation due to additive genetic (inherited) effects” value worked out at 56%. In addition, the “H^2 (heritability)” value with CYP3A [3] (AE model) is 0.79 (0.04)*. For the same molecule, in the data set on CYP3A [3] (CE model), the “C^2 (common environmental effect)” value was 0.74 (0.04)*. Besides, in the data set on CYP3A [3], the “rdz (correlation between DZ twins)” value is 0.53 (0.12)* and the “rmz (correlation between MZ twins)” value is reported as 0.79 (0.04)*. In the data set with CYP3A [4] (human), the “Coefficient, CYP3A4*22” value is −8.21; the “Coefficient, CYP3A5*3” value is listed as −6.30; the “Coefficient, age” value came to 0.16; the “Coefficient, sex” value is −3.32. Besides, in the data set with CYP3A [4] (human, 0.2 mg), the “Coefficient, lean body weight” value is −0.20; the “Coefficient, smoking status” value was found to be 3.28; the “Coefficient, oral contraceptives” value is on record as −2.57. Besides, in data set [5], the half-life was at least 17 days.
Consider `CCC(C)n1ncn(-c2ccc(N3CCN(c4ccc(OCC5COC(Cn6cncn6)(c6ccc(Cl)cc6Cl)O5)cc4)CC3)cc2)c1=O` (stereo not shown) [itraconazole], for which, in the data set with CYP3A [6] (strong inhibitors, ref Kim et al., 2006, Greenblatt and Harmatz, 2015), the “CYP3A activity reduced to” value is listed as 10%.
On to `CC(C)CCC[C@@H](C)[C@H]1CC[C@H]2[C@@H]3CC=C4C[C@@H](O)CC[C@]4(C)[C@H]3CC[C@]12C` [Cholesterol, cholesterol], for which, in the data set on CYP3A [1] (DZ twins), the “Ratio (cholesterol)” value is on record as 0.17 (0.12 – 0.25) and the Plasma concentration is given as 1.38 (0.94 – 2.12) mg/ml. In the data set on CYP3A [1] (MZ twins), the “Ratio (cholesterol)” value is 0.17 (0.01 – 0.35) and the Plasma concentration was 1.39 (0.86 – 1.99) mg/ml.
`NC(=O)N1c2ccccc2C=Cc2ccccc21` [carbamazepin]: in the data set with CYP3A [6], the CYP3A activity increased result is “up to 10 fold”.
In the case of `CCC1(c2ccccc2)C(=O)NC(=O)NC1=O` [phenobarbital], the CYP3A activity increased entry in the data set on CYP3A [6] is recorded as “up to 10 fold”.
On to `C[C@]12CCC(=O)C=C1CC[C@@H]1[C@@H]2[C@@H](O)C[C@@]2(C)[C@H]1CC[C@]2(O)C(=O)CO` [Cortisol, cortisol], for which the Amount in urine is on record as 32.14 (11.10 – 90.00) μg in the data set on CYP3A [7] (DZ twins) and 35.85 (10.05 – 142.80) μg in the data set on CYP3A [7] (MZ twins). For the same molecule, the “Ratio (cortisol)” value is 6.75 (3.38 – 18.22) in the data set with CYP3A [7] (DZ twins) and 6.29 (3.09 – 14.65) in the data set on CYP3A [7] (MZ twins).
Regarding `OCc1ncc2n1-c1ccc(Cl)cc1C(c1ccccc1F)=NC2` [1-OH-midazolam, 1′-hydroxymidazolam], in the data set with CYP3A [8] (DZ twins), the AUC is reported as 73.31 (30.95 – 322.8) μg * min/L and the “Ratio 1-OH-midazolam/midazolam (AUC)” value is recorded as 0.17 (0.07 – 0.54). For the same molecule, in the data set on CYP3A [8] (MZ twins), the AUC is on record as 66.88 (33.75 – 195.6) μg * min/L and the “Ratio 1-OH-midazolam/midazolam (AUC)” value was 0.15 (0.09 – 0.61). In the data set on CYP3A [8] (all subjects), the “AUC, inter-individual range” value was 30.95 – 322.8 μg∗min/L and the “Inter-individual variation in AUC” value is 10.4 fold. For the same molecule, the “AUC, mean” value with CYP3A [8] (all subjects, three occasions) was 86.2 µg·min/L. In addition, the “Intra-individual (between-days) mean coefficient of variation” value in the data set on CYP3A [8] (three occasions) is 12.3%. Further, the Genetic component in the data set on CYP3A [2] is 0.93 and 0.931. In the data set with CYP3A [2] (human, in vivo), the “Variation that may be due to genetic factors (from genetic component)” value is given as “up to 93%”. Moreover, in the data set on CYP3A [3] (ACE model), the “C^2 (common environmental effect)” value was 0.21 (0.23), the “H^2 (heritability)” value is given as 0.73 (0.23)* and the “Variation due to additive genetic (inherited) effects” value came to 73%. The “H^2 (heritability)” value in the data set on CYP3A [3] (AE model) is 0.94 (0.01)*. For the same molecule, in the data set on CYP3A [3] (CE model), the “C^2 (common environmental effect)” value is 0.78 (0.04)*. Moreover, in the data set on CYP3A [3], the “rdz (correlation between DZ twins)” value is 0.59 (0.11)* and the “rmz (correlation between MZ twins)” value is given as 0.94 (0.01)*. In the data set on CYP3A [4], the “Coefficient, CYP3A4*22” value is on record as −12.53; the “Coefficient, CYP3A5*3” value is recorded as 29.27; the “Coefficient, age” value is −1.78; the “Coefficient, lean body weight” value is recorded as −1.74. Moreover, in the data set with CYP3A [4], the “Coefficient, sex” value is 11.79; the “Coefficient, smoking status” value is 1.46; the “Coefficient, oral contraceptives” value is −31.33.
